Results on one molecule are retold here after article PMC12736008, “New Dimethylpyridine-3-Carboxamide Derivatives as MMP-13 Inhibitors with Anticancer Activity” (Molecules, 2025).

In the assay the target is T1, MMP-13 (Homo sapiens, UniProt P45452).
T1 construct: purchased Abcam ab139451
Put plainly: MMP-13 inhibitor screening assay kit (fluorometric). Conditions: single-point screening; tested compounds 1.8 to 4.6 µM. It is filed as biochemical. As for the experimental part: The inhibitory activity of the designed compounds against MMP-13 was evaluated using a commercial fluorometric MMP-13 inhibitor assay kit (Abcam, Cambridge, UK), following the manufacturer’s protocol. Solutions of the tested compounds were prepared at concentrations ranging from 1.8 to 4.6 µM. N-isobutyl-N-(4-methoxyphenylsulfonyl)glycyl hydroxamic acid (NNGH), a broad-spectrum inhibitor of matrix metalloproteinases, was used as positive control. […] In parallel, MMP-8 inhibition assays were also conducted using the same concentrations of compounds 3b, 3c, 3d, and 3g.
It should be emphasized that these assays were performed as single-point screening experiments, optimized for rapid qualitative assessment rather than full kinetic characterization. Consequently, the observed differences in activity between MMP-13 and MMP-8 are indicative trends supporting the selectivity predicted by computational studies, including docking, molecular dynamics simulations, and binding free energy calculations, rather than providing definitive quantitative evidence.
The inhibitory activity of the tested compounds was evaluated using the MMP-13 inhibitor screening assay kit (fluorometric) (Abcam, ab139451). The assay performed according to the manufacturer’s instructions. The designed compounds were tested at concentrations ranging from 1.8 to 4.6 µM, to determine their inhibitory activity. […]

Consider `COc1ccc(S(=O)(=O)N(CC(=O)NO)CC(C)C)cc1` [NNGH, N-isobutyl-N-(4-methoxyphenylsulfonyl)glycyl hydroxamic acid, reference compound], for which the MMP-13 activity inhibition is listed as approximately 97%.
